The values that follow come from patent publication US6921531B2, “Administering bifunctional molecules containing a drug moiety and presenter protein ligand for therapy” (The Board of Trustees of the Leland Stanford Junior …, priority 1998, dated 2005).

Where two headings read alike, the source gives them in different places.

In one assay the test system is PLC SH2 domain. Briefly: Competition binding assay of radioactive PLC SH2 domain to pYEEI beads. Conditions: FKpYEEI 1.5 M plus FKBP12 2.0 M plus FK506 1.0-5.0 M. The source says: The pYEEI peptide was coupled to Affi-Gel 10 beads (Biorad) via its amino-group. The Fyn, Lck and PLC SH2 domains were expressed in bacteria as GST fusion proteins. The linker between the GST protein and the SH2 domain contained a thrombin cleavage site and a protein kinase A (PKA) phosphorylation site. The fusion protein on glutathione beads was radioactively labeled at the PKA phosphorylation site using PKA (Sigma). After extensive washing of the beads, the radioactive SH2 domain was released by cleavage with thrombin (Sigma). In a typical binding assay, 7.5 L of a 1:1 peptide bead slurry were incubated with the radioactive SH2 domain (200 nM) for 2 hours in 100 L of binding buffer (20 mM Tris pH7.2; 150 mM NaCl). In order to separate the radioactive protein bound to the beads, the binding reaction was transfered into a PCR tube (USA Scientific Plastic), whose bottom had been punctured with a 26gauge needle. The PCR tube was placed in a 0.5 mL Eppendorf tube which in turn was placed in a regular 1.5 mL Eppendorf tube. The tubes were spun for 1 second at maximal speed in an Eppendorf centrifuge resulting in the separation of the beads remaining in the PCR tube and the supernatant, which was collected in the 0.5 ml Eppendorf tube. The beads were resuspended in […] PBS and the radioactivity was counted in a liquid scintillation counter after addition of 3 ml scintillation fluid. The radioactivity remaining in the 100 L supernatant was counted in the same way. It was determined that under the conditions described 65% Fyn, 25% PLC and 15%Lck SH2 domain were bound to the beads. […]
The binary complex of FKpYEEI and FKBP 12 has the same affinity for the Fyn SH2 domain as free FKpYEEI (see FIG. 7). […] The binding reactions were rotated at room temperature for 2 hours, centrifuged and analysed as described above.
In this assay, in 100 L binding reactions, radioactively labeled PLC SH2 domain (400 nM) was incubated with 7.5 L of a 1:1 pYEEI bead slurry. […] The binding reactions were rotated at room temperature for 2 hours, centrifuged and analysed as described above. […]

The target in the next assay is T1, Fyn SH2 domain (Homo sapiens, UniProt P06241).
T1 construct: The Fyn, Lck and PLC SH2 domains were expressed in bacteria as GST fusion proteins; GST (cleaved yes); made in house; host or cells: bacteria
T1 sequence (P06241 149-246 limits assumed): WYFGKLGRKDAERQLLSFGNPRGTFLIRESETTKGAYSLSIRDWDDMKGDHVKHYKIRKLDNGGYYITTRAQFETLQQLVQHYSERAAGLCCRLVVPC
Briefly: Competition binding assay of radioactive Fyn SH2 domain to pYEEI beads. From the text:
The pYEEI peptide was coupled to Affi-Gel 10 beads (Biorad) via its amino-group. The Fyn, Lck and PLC SH2 domains were expressed in bacteria as GST fusion proteins. The linker between the GST protein and the SH2 domain contained a thrombin cleavage site and a protein kinase A (PKA) phosphorylation site. The fusion protein on glutathione beads was radioactively labeled at the PKA phosphorylation site using PKA (Sigma). After extensive washing of the beads, the radioactive SH2 domain was released by cleavage with thrombin (Sigma). In a typical binding assay, 7.5 L of a 1:1 peptide bead slurry were incubated with the radioactive SH2 domain (200 nM) for 2 hours in 100 L of binding buffer (20 mM Tris pH7.2; 150 mM NaCl). In order to separate the radioactive protein bound to the beads, the binding reaction was transfered into a PCR tube (USA Scientific Plastic), whose bottom had been punctured with a 26gauge needle. The PCR tube was placed in a 0.5 mL Eppendorf tube which in turn was placed in a regular 1.5 mL Eppendorf tube. The tubes were spun for 1 second at maximal speed in an Eppendorf centrifuge resulting in the separation of the beads remaining in the PCR tube and the supernatant, which was collected in the 0.5 ml Eppendorf tube. The beads were resuspended in […] PBS and the radioactivity was counted in a liquid scintillation counter after addition of 3 ml scintillation fluid. The radioactivity remaining in the 100 L supernatant was counted in the same way. It was determined that under the conditions described 65% Fyn, 25% PLC and 15%Lck SH2 domain were bound to the beads. By increasing the amount of beads, up to 80% Fyn, 40% PLC and 25% Lck could be bound. These amounts reflect the active fraction of SH2 domains in the different protein preparations.
In order to determine the relative affinity of the SH2 domains for FKpYEEI or SLFpYEEI alone and FKpYEEI or SLFpYEEI bound to FKBP12 and FKBP52, the following competition assay was used. Radioactive SH2 domains were incubated with pYEEI peptide beads and FKpYEEI or SLFpYEEI in the presence or absence of the respective FKBP proteins. FKpYEEI and FKpYEEI/FKBP as well as SLFpYEEI and SLFpYEEI/FKBP compete for binding of the SH2 domains with the peptide beads. The higher the affinity of the FKpYEEI or SLFpYEEI ligand in the supernatant, the less SH2 domain is bound to the peptide beads (FIG. 3).
Using the competition binding assay described above, FKpYEEI was added to peptide beads and the Fyn SH2 domain in the presence of increasing concentrations of FKBP52 (FIG. 4). In this assay, in 100 L binding reactions, radioactively labeled Fyn SH2 domain (200 nM) was incubated with 7.5 L of a 1:1 pYEEI bead slurry. No FKpYEEI, 1.0 M FKpYEEI or 1.0 M FKpYEEI plus increasing concentrations of FKBP52 (0.25-4.0 M) were added. The binding reactions were rotated at room temperature for 2 hours. The supernatant was separated from the beads by spinning the binding reactions in punctured PCR tubes for 1 sec in an Eppendorf centrifuge at maximal speed. The beads were resuspended in 100 1 PBS and the radioactivity bound to the beads was counted in a liquid scintillation vial for 30 sec. The radioactivity bound to the beads in the presence of only the Fyn SH2 domain was plotted as 100% of maximal Fyn SH2 domain binding to pYEEI beads. The radioactivity bound in the presence of FKpYEEI and FKBP52 was calculated as the percentage of maximal Fyn SH2 domain binding. Every binding reaction was done in triplicate. The data points reflect the average of the three binding reactions. The error bars indicate the standard error.
In this assay, in 100 L binding reactions, radioactively labeled Fyn SH2 domain (200 nM) was incubated with 7.5 L of a 1:1 pYEEI bead slurry. […] The binding reactions were rotated at room temperature for 2 hours, centrifuged and analysed as described above. […]

The target in assay [1] is alkaline phosphatase (Dog Intestine) (Canis lupus familiaris, UniProt A0A8C0LCK3). Briefly: Alkaline phosphatase inhibition, Dog Intestine isoform. The assay is classed as biochemical. The method, then:
(§1) Reactions were conducted in 200 mM diethanolamine buffer, pH 10, with methylumbeliferal phosphate as the substrate. The reaction was monitored by recording fluorescence of the hydrolysis product (excitation at 355 nm, fluorescence at […]), and the first 10% of the reaction was used to determine the rate of the reaction.
(§2) In the presence of 100 μM human serum albumin, compound 1 was seen to be a better inhibitor for four of the enzymes tested relative to the inhibition seen in the absence of albumin.

Assay [2] addresses alkaline phosphatase (Eel Intestine) (Anguilla anguilla, UniProt A0A9D3RXU0). Briefly: Alkaline phosphatase inhibition, Eel Intestine isoform. Format: biochemical. The note with it: 100 μM human serum albumin vs none. The method, then: as §1, §2
The subject of assay [3] is alkaline phosphatase (Shrimp). Briefly: Alkaline phosphatase inhibition, Shrimp isoform. Format: biochemical. The note with it: shrimp isoform; 100 μM human serum albumin vs none. The method, then: as §1, §2
For assay [4], the target named is alkaline phosphatase (Shrimp) (Pandalus borealis, UniProt Q9BHT8). Briefly: Alkaline phosphatase inhibition, Shrimp isoform. Format: biochemical. Conditions: Shrimp, pH 10. The method, then:
as §1, §2

Assay [5] addresses T2, alkaline phosphatase (Bovine Milk) (Bos taurus, UniProt P09487).
T2 construct: Bovine Milk; from tissue; host or cells: bovine milk
T2 sequence (P09487 18-499): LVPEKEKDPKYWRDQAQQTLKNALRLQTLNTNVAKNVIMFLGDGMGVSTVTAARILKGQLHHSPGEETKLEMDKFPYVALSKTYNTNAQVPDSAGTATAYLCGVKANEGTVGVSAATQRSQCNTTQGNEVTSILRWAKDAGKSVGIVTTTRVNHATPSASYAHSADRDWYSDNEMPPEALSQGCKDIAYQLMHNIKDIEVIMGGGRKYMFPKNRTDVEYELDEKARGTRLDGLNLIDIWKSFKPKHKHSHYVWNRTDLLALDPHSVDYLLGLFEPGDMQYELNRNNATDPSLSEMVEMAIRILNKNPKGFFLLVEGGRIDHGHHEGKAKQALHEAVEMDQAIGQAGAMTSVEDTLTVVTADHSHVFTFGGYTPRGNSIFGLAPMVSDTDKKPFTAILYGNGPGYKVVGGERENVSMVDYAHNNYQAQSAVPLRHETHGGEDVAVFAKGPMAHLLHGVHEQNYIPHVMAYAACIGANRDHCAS
The assay is described as follows: Alkaline phosphatase inhibition, Bovine Milk isoform. The assay is classed as biochemical. The procedure: as §1, §2

The target of assay [6] is alkaline phosphatase (Bacteria) (Escherichia coli, UniProt P00634). The assay is described as follows: Alkaline phosphatase inhibition, Bacteria isoform. The assay is classed as biochemical. The procedure:
as §1, §2

For assay [7], the target named is T3, alkaline phosphatase (Porcine Kidney) (Sus scrofa, UniProt A0A4X1W3F8).
T3 sequence (A0A4X1W3F8 1-524): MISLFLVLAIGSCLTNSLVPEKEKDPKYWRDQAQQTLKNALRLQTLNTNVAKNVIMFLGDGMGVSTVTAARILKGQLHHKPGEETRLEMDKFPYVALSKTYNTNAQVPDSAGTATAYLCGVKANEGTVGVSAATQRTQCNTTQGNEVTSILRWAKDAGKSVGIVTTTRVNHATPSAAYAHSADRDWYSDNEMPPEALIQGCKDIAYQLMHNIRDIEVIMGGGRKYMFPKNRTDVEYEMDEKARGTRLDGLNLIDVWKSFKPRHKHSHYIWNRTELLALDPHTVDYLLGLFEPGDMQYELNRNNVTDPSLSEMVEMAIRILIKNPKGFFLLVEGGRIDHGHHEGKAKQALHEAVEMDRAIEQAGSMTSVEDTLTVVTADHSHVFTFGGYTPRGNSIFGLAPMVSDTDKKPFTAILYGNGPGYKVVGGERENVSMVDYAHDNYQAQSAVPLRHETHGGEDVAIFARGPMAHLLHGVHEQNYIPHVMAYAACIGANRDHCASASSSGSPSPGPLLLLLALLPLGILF
The assay is described as follows: Alkaline phosphatase inhibition, Porcine Kidney isoform. The assay is classed as biochemical. The procedure: as §1, §2

In assay [8] the target is alkaline phosphatase (Rabbit Intestine) (Oryctolagus cuniculus, UniProt G1SXE4). The assay is described as follows: Alkaline phosphatase inhibition, Rabbit Intestine isoform. Format: biochemical. Conditions: 100 μM human serum albumin vs none. The procedure:
as §1, §2

The target of assay [9] is T4, alkaline phosphatase (Human Placenta) (Homo sapiens, UniProt P05187).
T4 construct: roughly 2-fold for the eel intestine and human placenta isoforms of the enzyme; from tissue; host or cells: human placenta
T4 sequence (P05187 23-506): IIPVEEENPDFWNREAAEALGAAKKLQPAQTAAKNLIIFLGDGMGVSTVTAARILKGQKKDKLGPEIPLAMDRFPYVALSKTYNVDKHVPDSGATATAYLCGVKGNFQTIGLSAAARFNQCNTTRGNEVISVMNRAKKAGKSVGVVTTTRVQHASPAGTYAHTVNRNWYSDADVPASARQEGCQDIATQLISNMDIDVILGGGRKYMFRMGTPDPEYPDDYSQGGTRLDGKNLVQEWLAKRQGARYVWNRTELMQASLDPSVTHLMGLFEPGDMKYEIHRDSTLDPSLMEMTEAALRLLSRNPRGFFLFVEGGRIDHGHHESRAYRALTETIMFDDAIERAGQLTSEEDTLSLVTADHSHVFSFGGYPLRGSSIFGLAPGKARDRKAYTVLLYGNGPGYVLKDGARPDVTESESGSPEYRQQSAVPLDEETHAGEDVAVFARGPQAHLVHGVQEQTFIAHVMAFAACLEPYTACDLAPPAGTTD
The assay is described as follows: Alkaline phosphatase inhibition, Human Placenta isoform. The assay is classed as biochemical. The note with it: for IC50: Human Placenta, pH 10. The method, then: as §1, §2

For a further assay, the target named is albumin (Homo sapiens, UniProt P02768). Conditions: known ligand; read-out: IC50 as ligand for albumin; cited from earlier work.
albumin, sequence (P02768 25-609): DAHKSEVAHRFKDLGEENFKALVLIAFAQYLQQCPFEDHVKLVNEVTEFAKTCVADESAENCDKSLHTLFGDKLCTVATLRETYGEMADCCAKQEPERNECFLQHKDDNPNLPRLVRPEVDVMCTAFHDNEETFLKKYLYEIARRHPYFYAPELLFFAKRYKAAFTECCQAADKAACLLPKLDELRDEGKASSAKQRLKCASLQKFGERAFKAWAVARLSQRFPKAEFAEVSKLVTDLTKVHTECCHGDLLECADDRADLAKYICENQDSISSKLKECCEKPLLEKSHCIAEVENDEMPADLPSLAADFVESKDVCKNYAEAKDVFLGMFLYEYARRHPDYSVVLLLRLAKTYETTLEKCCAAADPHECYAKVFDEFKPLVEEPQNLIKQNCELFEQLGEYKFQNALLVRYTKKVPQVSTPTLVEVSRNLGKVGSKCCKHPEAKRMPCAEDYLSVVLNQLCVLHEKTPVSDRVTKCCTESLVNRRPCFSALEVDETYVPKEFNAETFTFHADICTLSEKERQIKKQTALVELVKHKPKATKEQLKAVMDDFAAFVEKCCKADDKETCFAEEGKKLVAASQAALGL
The target in the next assay is alkaline phosphatase. The note with it: known inhibitor; cited from earlier work.
[10] abbreviates: 100 μM human serum albumin, pH 10, read-out: IC50 (100 μM albumin).
The mark [11] stands for this setting: no albumin, pH 10, read-out: IC50 (no albumin).

alkaline phosphatase (Bacteria), sequence (P00634 22-471): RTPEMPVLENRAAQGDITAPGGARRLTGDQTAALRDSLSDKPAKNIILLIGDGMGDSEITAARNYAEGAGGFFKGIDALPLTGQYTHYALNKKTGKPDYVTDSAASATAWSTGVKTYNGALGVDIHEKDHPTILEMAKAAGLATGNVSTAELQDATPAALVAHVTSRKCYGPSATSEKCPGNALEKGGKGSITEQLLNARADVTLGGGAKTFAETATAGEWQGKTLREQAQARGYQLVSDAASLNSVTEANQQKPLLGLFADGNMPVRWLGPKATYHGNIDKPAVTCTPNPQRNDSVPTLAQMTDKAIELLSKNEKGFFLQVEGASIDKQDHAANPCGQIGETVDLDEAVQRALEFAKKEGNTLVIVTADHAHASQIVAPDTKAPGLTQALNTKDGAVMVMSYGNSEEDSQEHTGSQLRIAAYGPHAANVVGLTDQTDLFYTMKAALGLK
alkaline phosphatase (Dog Intestine), sequence (A0A8C0LCK3 23-522): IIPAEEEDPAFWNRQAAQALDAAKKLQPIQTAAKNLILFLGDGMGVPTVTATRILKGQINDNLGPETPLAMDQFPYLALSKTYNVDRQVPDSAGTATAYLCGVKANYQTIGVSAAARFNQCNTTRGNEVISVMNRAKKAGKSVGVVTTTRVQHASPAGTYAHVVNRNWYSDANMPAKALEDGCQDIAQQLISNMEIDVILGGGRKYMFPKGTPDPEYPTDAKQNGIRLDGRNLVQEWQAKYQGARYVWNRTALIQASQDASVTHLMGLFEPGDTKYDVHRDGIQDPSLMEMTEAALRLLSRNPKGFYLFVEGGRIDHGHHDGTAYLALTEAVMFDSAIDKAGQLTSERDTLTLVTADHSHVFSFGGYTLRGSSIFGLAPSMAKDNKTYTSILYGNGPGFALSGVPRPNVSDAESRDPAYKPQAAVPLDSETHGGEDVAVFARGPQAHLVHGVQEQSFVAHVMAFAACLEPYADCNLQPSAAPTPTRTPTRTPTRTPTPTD
alkaline phosphatase (Shrimp) (Pandalus borealis, UniProt Q9BHT8), sequence (Q9BHT8 entry or part of it): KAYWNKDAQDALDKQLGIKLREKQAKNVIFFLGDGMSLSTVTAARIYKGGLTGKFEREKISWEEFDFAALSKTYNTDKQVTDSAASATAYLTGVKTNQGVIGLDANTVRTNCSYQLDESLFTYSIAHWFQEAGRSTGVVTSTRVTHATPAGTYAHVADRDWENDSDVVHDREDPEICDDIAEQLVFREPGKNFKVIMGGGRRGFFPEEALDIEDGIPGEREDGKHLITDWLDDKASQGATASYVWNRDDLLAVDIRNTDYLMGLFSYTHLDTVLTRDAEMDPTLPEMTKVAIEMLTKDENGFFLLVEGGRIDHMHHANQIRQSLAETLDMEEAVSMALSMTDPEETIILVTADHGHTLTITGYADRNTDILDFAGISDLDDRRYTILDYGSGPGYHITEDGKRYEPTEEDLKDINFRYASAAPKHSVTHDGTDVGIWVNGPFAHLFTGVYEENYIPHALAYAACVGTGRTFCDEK
alkaline phosphatase (Rabbit Intestine), sequence (G1SXE4 25-504): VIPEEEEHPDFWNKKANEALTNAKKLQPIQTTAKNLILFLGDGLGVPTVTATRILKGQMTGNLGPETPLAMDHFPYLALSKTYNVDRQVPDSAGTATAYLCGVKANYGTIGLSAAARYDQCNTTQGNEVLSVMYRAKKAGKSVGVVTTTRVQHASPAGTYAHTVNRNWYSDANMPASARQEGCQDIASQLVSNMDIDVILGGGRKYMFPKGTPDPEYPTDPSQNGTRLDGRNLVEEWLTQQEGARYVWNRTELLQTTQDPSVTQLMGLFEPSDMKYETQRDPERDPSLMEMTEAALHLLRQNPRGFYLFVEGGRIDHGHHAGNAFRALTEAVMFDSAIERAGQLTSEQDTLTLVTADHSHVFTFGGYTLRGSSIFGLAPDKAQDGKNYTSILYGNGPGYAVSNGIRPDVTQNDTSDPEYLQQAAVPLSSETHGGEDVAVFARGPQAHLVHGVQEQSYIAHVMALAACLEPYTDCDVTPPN
alkaline phosphatase (Eel Intestine), sequence (A0A9D3RXU0 entry or part of it): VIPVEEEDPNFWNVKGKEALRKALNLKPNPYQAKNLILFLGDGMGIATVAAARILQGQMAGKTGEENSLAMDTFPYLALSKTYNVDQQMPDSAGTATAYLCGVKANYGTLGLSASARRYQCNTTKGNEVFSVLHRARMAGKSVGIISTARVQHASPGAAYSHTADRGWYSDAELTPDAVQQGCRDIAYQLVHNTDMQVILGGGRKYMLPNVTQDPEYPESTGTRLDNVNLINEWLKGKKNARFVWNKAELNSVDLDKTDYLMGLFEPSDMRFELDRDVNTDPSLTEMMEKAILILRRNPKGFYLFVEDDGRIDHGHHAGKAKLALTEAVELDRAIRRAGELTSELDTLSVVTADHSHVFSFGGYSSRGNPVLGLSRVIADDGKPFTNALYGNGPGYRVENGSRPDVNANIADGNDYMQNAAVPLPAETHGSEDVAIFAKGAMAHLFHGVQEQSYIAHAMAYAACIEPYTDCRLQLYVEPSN

`C=CC[C@@H]1/C=C(\C)C[C@H](C)C[C@H](OC)[C@H]2O[C@@](O)(C(=O)C(=O)N3CCCC[C@H]3C(=O)O[C@H](/C(C)=C/[C@@H]3CC[C@@H](O)[C@H](OC)C3)[C@H](C)[C@@H](O)CC1=O)[C@H](C)C[C@@H]2OC` [FK506, reference compound]: the results for the “Effect of added FK506 on the FKBP12 effect” value with PLC SH2 domain and at Fyn SH2 domain (SLFpYEEI 1.0 M plus FKBP12 2.0 M plus FK506 1.0-3.0 M) were “the affinity reduction is reversed” and “reverses the effect of reduced affinity”, respectively. In addition, the “Effect of added FK506 on the FKBP52 effect” value at Fyn SH2 domain (FKpYEEI 1.0 M plus FKBP52 2.0 M plus FK506 0.25-15.0 M) is on record as “the affinity enhancing effect of FKBP52 is reversed”.
Usually IC50 stands for the concentration that inhibits the measured activity by half. `CC(C)(S)C(N)C(=O)NCC(=O)Nc1ccc(C(=O)O)c(O)c1` (stereo not drawn) [Compound 1]: the concentration for half-maximal inhibition (IC50) in assay [1] (read-out: IC50 (100 μM albumin), 100 μM human serum albumin, pH 10) came out at 20 µM; in [1] (read-out: IC50 (no albumin), no albumin, pH 10) it was 20 µM; in assay [4] (IC50 (100 μM albumin), 100 μM human serum albumin), 80 µM; in [4] (IC50 (no albumin), no albumin), 3000 µM; in assay [5] (setting [10]) it was 50 µM; in [5] (setting [11]) it was 50 µM. The concentration for half-maximal inhibition (IC50) was found to be 50 µM in assay [6]; 50 µM in assay [6] (read-out: IC50 (100 μM albumin), Bacteria, 100 μM human serum albumin, pH 10); 50 µM in assay [7] (setting [10]); 50 µM in assay [7] (setting [11]); 45 µM in assay [9] (100 μM human serum albumin, read-out: IC50 (100 μM albumin)); 300 µM in assay [9] (no albumin, read-out: IC50 (no albumin)). The “Decrease of IC50 in the presence of albumin” value is “roughly 2 fold” in [2]; “roughly 12 fold” in assay [3]; “roughly 12 fold” in assay [8]; “roughly 2 fold” in [9] (human placenta isoform, 100 μM human serum albumin vs none).
On to `Nc1ccc(C(=O)O)c(O)c1` [para-amino salicylic acid], for which the half-inhibitory concentration (IC50) on albumin was 5 µM.
Regarding `CC(C)(S)[C@@H](N)C(=O)O` [Penicillamine], on alkaline phosphatase, the “IC 50 values for a wide variety of alkaline phosphatase isoforms” value was “in the μM range”.
